Test results published in patent publication US11242555B2, “Molecular sensors and uses thereof” (New York University, priority 2018, dated 2022).
“Also recorded” adds a separate entry of the source. Starred links: 1 amine or outer side, 2 acyl side, 3 side chain; linkers in the order of their positions; H or OH if unused. Positions of bridges follow the written chain, without caps; N, C: chain ends. Non-standard residues stand in square brackets, D forms with d. Residues, ends and D or L forms follow the SMILES beside them. Chains are numbered I, II in the order given. Actinocin(9to1) = Cc1c2oc3c(C)ccc(C(=O)[*:1])c3nc-2c(C(=O)[*:2])c(N)c1=O; NMeV = CN[C@H](C(=O)O)C(C)C; Sar = CNCC(=O)O

Key:
[1] = system: double-stranded oligo probe (DNA); test: Linear oligo probe titration with intercalating drug in solution (FRET ratio, Hill plot binding constant); details: for binding constant: Hill plot fit of fraction of intercalated bases vs drug concentration, all binding sites assumed occupied at saturation
[2] = system: DNA within living cells; test: Linear probe in living cells transfected with the oligo probe (confocal FRET ratio); format: cell-based; details: for FRET ratio (Cy5:Cy3) in cells in presence of intercalating drug vs no drug: cells transfected with linear probe, drug in culture medium
Method: Cells transfected with the oligo probe were imaged by exciting the donor (Cy3) and imaging the fluorescence of Cy3 (A) and Cy5 (acceptor) (B) in the appropriate spectral ranges using a confocal microscope. (C) The false-colored images can be merged, therefore producing a false color image where orange indicates a large FRET ratio. […] (G) The drop in the FRET ratio is measured by calculating the ratio of the Cy5 signal to that of Cy3 within the nuclei of cells in presence of the three intercalating compounds.
The molecular sensors were used in cell culture according to the following: 1) the desired cells were prepared in glass-bottom culture dishes or wells to a confluence lower than 70%. 2) Two hours before imaging, a desired transfection protocol (e.g., liposome transfection), and the like) is used with either sensor depending on the desired mode of DNA binding to be investigated. 3) After the transfection period, the culture was washed from excess sensors. 4) The culture disk was transferred to the confocal microscope for imaging. […] 6) If using filter cubes use the appropriate cubes to image donor fluorescence in one channel and acceptor fluorescence in the other. If using spectral imaging set the imaging wavelength windows for the two fluorophores. 7) Cells were identified that have been successfully transfected as indicated by fluorescence throughout the cell. 8) Images were acquired in both channels. 9) Software to calculate the ratio of acceptor/donor fluorescence (the FRET ratio) for the desired regions within the imaged cells was used. 10) The desired drug to be tested was added. 11) The cells were imaged again and the FRET ratio was calculated as a function of the desired variable: e.g. time, drug concentration, region within the cell, etc. A change in the FRET ratio indicates DNA drug binding.
Using laser scanning confocal microscopy the cells are imaged by exciting the donor (Cy3) and imaging the fluorescence of Cy3 and Cy5 (acceptor) in the appropriate spectral ranges (images A, B, D, E). The false-colored images can be merged therefore producing a false color image where green indicates a small FRET ratio and red a large FRET ratio and intermediate values being yellow/orange (images C and F). […] The FRET ratio can be measured from the ratio of Cy5:Cy3 intensities.
Cells were transfected with the sensor and imaged in culture medium as described in FIG. 17. […] The average FRET ratio measured as Cy5:Cy3 intensities in the images is plotted as a function of time in the lower right panel.

[3] = system: double-stranded oligo probe (DNA); test: High-throughput screen of a compound library with the linear oligo probe (FRET ratio, 384 well plate); format: binding
Method: A library of compounds was mixed with the oligo probe in 384 well plate format. (A) The fluorescence spectra of the probe were recorded on a plate reader as in FIG. 21 and the FRET ratio (Cy5/Cy3 intensity) was calculated. […] (B) A library consisting of 1600 compounds from FDA and internationally approved drugs was screened to detect potential intercalators that can be drug repositioning targets.
The molecular sensors were used in vitro according to the following: 1) The sensors were diluted in a NaCl solution (e.g., in a 50-100 mM NaCl solution) and 0.2% BSA solution to a concentration of 1 μM. This can be adjusted depending on the sensitivity of the fluorescence measurement device. 2) The fluorescence spectrum was measured using a fluorescence spectrophotometer, a plate reader, or any other ad-hoc means. […] 3) The molecular species was added to be characterized for DNA binding properties or to be tested for intercalating or groove binding ability. The appropriate sensor is used (e.g., a linear or flexible molecular sensor). The fluorescence spectrum was measured again using the same methods and settings. 4) The FRET ratio was compared for both the sensor alone and sensor plus tested molecule. The FRET ratio is calculated by dividing the peak intensity of the acceptor fluorescence by that of the donor fluorescence.

[4] = system: nuclei of cells in culture; test: Flexible sensor FRET ratio within nuclei of cells treated with chromatin-disrupting drugs (macromolecular crowding); format: cell-based; details: flexible sensor within nuclei of cells in culture medium
Method: The flexible molecular sensors reports on the local macromolecular crowding within living cells in culture (FIG. 5). The sensor was introduced into cells by liposome transfection. After a short incubation period of 45 minutes, the cells plated on an imaging well were washed and imaged using scanning laser confocal microscopy. The cells were then imaged by exciting the donor (Cy3) and imaging the fluorescence of Cy3 and Cy5 (acceptor) in the appropriate spectral ranges (top two images). The false-colored images can be merged therefore producing another false color image where green (FIG. 5—top left) indicates a small FRET ratio and red (FIG. 5—top right) a large FRET ratio an intermediate values being yellow/orange (FIG. 5—bottom left). A quantitative measurement of the FRET ratio is represented as a gray scale image (FIG. 5—bottom right) where each pixel is in the ratio of the intensity in the Cy5 channel divided by that in the Cy3 channel. Local variations indicate local differences in the degree of macromolecular crowding.
Drugs that disrupt chromatin compaction result in a more crowded nucleus (FIG. 11). The FRET ratio was measured within the nuclei of cells in culture medium in the absence and presence of drugs that disrupt chromatin structure. Three drugs that disrupt chromatin in different ways were used: trichostatin A (TSA) and tubacin both of which inhibit histone deacetylases, and etoposide which forms a complex with DNA and topisomerase II resulting in the accumulation of DNA breaks.

SMILES	binding constant [1]	FRET ratio (Cy5:Cy3) in cells in presence of intercalating drug vs no drug [2]	FRET ratio in nuclei of treated cells compared to untreated cells [4]	further results
Cc1c2oc3c(C)ccc(C(=O)N[C@@H]4C(=O)N[C@H](C(C)C)C(=O)N5CCC[C@H]5C(=O)N(C)CC(=O)N(C)[C@@H](C(C)C)C(=O)O[C@@H]4C)c3nc-2c(C(=O)N[C@@H]2C(=O)N[C@H](C(C)C)C(=O)N3CCC[C@H]3C(=O)N(C)CC(=O)N(C)[C@@H](C(C)C)C(=O)O[C@@H]2C)c(N)c1=O [DACTINOMYCIN] (I: T[dV]P[Sar][NMeV] / II: T[dV]P[Sar][NMeV]; ester I:1-I:C, II:1-II:C; linker I:N-II:N via Actinocin(9to1))	2e+06 M⁻¹	drop if the FRET efficiency upon intercalation within the cell		FRET ratio as a function of intercalator concentration ([1]; linear probe in solution, excited at 500 nm, peak acceptor/peak donor): decreases; FRET ratio (Cy5:Cy3) in cells in presence of intercalating drug vs no drug ([2]; listed as Actinomycin D): decrease in the FRET ratio; also recorded: clear difference in FRED ratio; time-course of drug entry into the cell (drop in FRET ratio within the nucleus) ([2]; time-lapse after drug was introduced into the culture medium): from orange (high FRET) to green (low FRET); FRET ratio [3]: 0.4765
CS[C@H]1SC[C@H]2C(=O)N(C)[C@@H](C(C)C)C(=O)OC[C@@H](NC(=O)c3cnc4ccccc4n3)C(=O)N[C@@H](C)C(=O)N(C)[C@@H]1C(=O)N(C)[C@@H](C(C)C)C(=O)OC[C@@H](NC(=O)c1cnc3ccccc3n1)C(=O)N[C@@H](C)C(=O)N2C [Echinomycin]	400000 M⁻¹	clear difference in FRED ratio		
c1cnc2c(c1)ccc1cccnc12 [Phenanthroline]	710 M⁻¹	clear difference in FRED ratio		
COc1cc([C@@H]2c3cc4c(cc3[C@@H](O[C@@H]3O[C@@H]5CO[C@@H](C)O[C@H]5[C@H](O)[C@H]3O)[C@H]3COC(=O)[C@H]23)OCO4)cc(OC)c1O [etoposide]			larger FRET ratio	
CC(/C=C/C(=O)NO)=C\[C@@H](C)C(=O)c1ccc(N(C)C)cc1 [trichostatin A]			larger FRET ratio	
O=C(CCCCCCC(=O)Nc1ccc([C@H]2O[C@@H](CSc3nc(-c4ccccc4)c(-c4ccccc4)o3)C[C@@H](c3ccc(CO)cc3)O2)cc1)NO [tubacin]			larger FRET ratio	
